# In ChEMBL document CHEMBL3885861, “Open TG-GATES”:
# Species: Rattus norvegicus
# Experiment: Open TG-GATES - Regimen: Single
# Format: toxicity, organism-based, Sprague-Dawley
# Parameters: regimen Single, gender Male, age 6 weeks
# Conditions: in vivo, po, route gavage; for gamma-GTP / ALP / ALT / AST / BUN / CRE / DBIL / GLC / IP / K / Na / PL / RALB / TBIL / TC / TG / TP / LDH / Ca: tissue Plasma; for APTT / Bas / Eos / Fbg / Hb / Ht / Lym / MCH / MCHC / MCV / Mono / Neu / PT / Plat / RBC / Ret / WBC: tissue Blood; for KIDNEY_L / KIDNEY_R / KIDNEY_TOTAL: tissue Kidney; for LIVER: tissue Liver
# [1] = 300 mg/kg, 3 h, dose level Middle
# [2] = 300 mg/kg, 6 h, dose level Middle
# [3] = 300 mg/kg, 9 h, dose level Middle
# [4] = 300 mg/kg, 24 h, dose level Middle
# [5] = 1000 mg/kg, 3 h, dose level High
# [6] = 1000 mg/kg, 6 h, dose level High
# [7] = 1000 mg/kg, 9 h, dose level High
# [8] = 1000 mg/kg, 24 h, dose level High
smiles,measurement,setting,value
C[C@H](CS)C(=O)N1CCC[C@H]1C(=O)O [CAPTOPRIL],gamma-GTP,"100 mg/kg, 24 h, dose level Low",1 IU/L
same,TERMINAL_BW,[1],224.2 g
same,APTT,[1],16.3 s
same,Bas,[1],0%
same,Eos,[1],0.8%
same,Fbg,[1],204.8 mg/dL
same,Hb,[1],13.2 g/dL
same,Ht,[1],39.8%
same,Lym,[1],83.6%
same,MCH,[1],21.3 pg
same,MCHC,[1],33.2%
same,MCV,[1],64.1 fL
same,Mono,[1],5%
same,Neu,[1],10%
same,PT,[1],11.6 s
same,Plat,[1],117.4 x10_4/uL
same,RBC,[1],620.8 x10_4/ul
same,Ret,[1],6.6%
same,WBC,[1],125.4 x10_2/uL
same,KIDNEY_L,[1],1 g
same,KIDNEY_R,[1],1 g
same,KIDNEY_TOTAL,[1],2 g
same,LIVER,[1],11.2 g
same,ALP,[1],845.8 IU/L
same,ALT,[1],33.4 IU/L
same,AST,[1],61.8 IU/L
same,BUN,[1],17 mg/dL
same,CRE,[1],0.4 mg/dL
same,DBIL,[1],0.006 mg/dL
same,GLC,[1],209.4 mg/dL
same,IP,[1],9.3 mg/dL
same,K,[1],5 meq/L
same,Na,[1],138 meq/L
same,PL,[1],130 mg/dL
same,RALB,[1],3.7 g/dL
same,TBIL,[1],0.4 mg/dL
same,TC,[1],70.8 mg/dL
same,TG,[1],68.6 mg/dL
same,TP,[1],5.4 g/dL
same,gamma-GTP,[1],1.4 IU/L
same,TERMINAL_BW,[2],221.9 g
same,APTT,[2],16.4 s
same,Bas,[2],0%
same,Eos,[2],1.2%
same,Hb,[2],12.9 g/dL
same,Ht,[2],39%
same,Lym,[2],80%
same,MCH,[2],21 pg
same,MCHC,[2],33%
same,MCV,[2],63.5 fL
same,Mono,[2],6.6%
same,Neu,[2],12.2%
same,PT,[2],12.1 s
same,Plat,[2],116.7 x10_4/uL
same,RBC,[2],615 x10_4/ul
same,Ret,[2],8.2%
same,WBC,[2],113.8 x10_2/uL
same,KIDNEY_L,[2],1 g
same,KIDNEY_R,[2],1 g
same,KIDNEY_TOTAL,[2],2 g
same,ALP,[2],734.8 IU/L
same,ALT,[2],32 IU/L
same,AST,[2],55 IU/L
same,BUN,[2],21.8 mg/dL
same,CRE,[2],0.6 mg/dL
same,DBIL,[2],0.026 mg/dL
same,GLC,[2],197.4 mg/dL
same,K,[2],4.8 meq/L
same,LDH,[2],92.4 IU/L
same,Na,[2],139 meq/L
same,PL,[2],133.6 mg/dL
same,RALB,[2],3.5 g/dL
same,TBIL,[2],0.5 mg/dL
same,TC,[2],73.6 mg/dL
same,TG,[2],50.4 mg/dL
same,TP,[2],5.1 g/dL
same,gamma-GTP,[2],2 IU/L
same,TERMINAL_BW,[3],222.6 g
same,APTT,[3],15.9 s
same,Bas,[3],0%
same,Eos,[3],0.8%
same,Fbg,[3],204 mg/dL
same,Hb,[3],13 g/dL
same,Ht,[3],39.5%
same,Lym,[3],79.2%
same,MCH,[3],21.4 pg
same,MCHC,[3],32.8%
same,MCV,[3],65.4 fL
same,Mono,[3],4.8%
same,Neu,[3],15.2%
same,PT,[3],12.3 s
same,RBC,[3],604.2 x10_4/ul
same,Ret,[3],8.6%
same,KIDNEY_L,[3],1 g
same,KIDNEY_R,[3],1 g
same,KIDNEY_TOTAL,[3],2 g
same,LIVER,[3],9.4 g
same,ALP,[3],667 IU/L
same,ALT,[3],35.4 IU/L
same,AST,[3],55.8 IU/L
same,BUN,[3],16.8 mg/dL
same,CRE,[3],0.4 mg/dL
same,DBIL,[3],0.078 mg/dL
same,GLC,[3],208.6 mg/dL
same,K,[3],5 meq/L
same,LDH,[3],72.6 IU/L
same,Na,[3],139.6 meq/L
same,PL,[3],139.6 mg/dL
same,RALB,[3],3.7 g/dL
same,TBIL,[3],0.3 mg/dL
same,TC,[3],78.8 mg/dL
same,TG,[3],49 mg/dL
same,TP,[3],5.3 g/dL
same,gamma-GTP,[3],2 IU/L
same,TERMINAL_BW,[4],235.1 g
same,APTT,[4],16.5 s
same,Bas,[4],0%
same,Eos,[4],0.8%
same,Hb,[4],13.2 g/dL
same,Ht,[4],39.8%
same,Lym,[4],83.4%
same,MCH,[4],21.5 pg
same,MCHC,[4],33.2%
same,MCV,[4],64.8 fL
same,Mono,[4],5.2%
same,Neu,[4],10%
same,PT,[4],11.4 s
same,Plat,[4],118.6 x10_4/uL
same,RBC,[4],613.8 x10_4/ul
same,Ret,[4],8.6%
same,KIDNEY_L,[4],1 g
same,KIDNEY_R,[4],1 g
same,KIDNEY_TOTAL,[4],2.1 g
same,LIVER,[4],11.6 g
same,ALT,[4],37.6 IU/L
same,AST,[4],64.8 IU/L
same,BUN,[4],17.4 mg/dL
same,CRE,[4],0.6 mg/dL
same,Ca,[4],11.3 mg/dL
same,DBIL,[4],0.02 mg/dL
same,GLC,[4],189.6 mg/dL
same,IP,[4],8.5 mg/dL
same,K,[4],4.9 meq/L
same,LDH,[4],115.6 IU/L
same,Na,[4],138.8 meq/L
same,PL,[4],150.6 mg/dL
same,RALB,[4],4.1 g/dL
same,TBIL,[4],0.3 mg/dL
same,TC,[4],79.2 mg/dL
same,TG,[4],86 mg/dL
same,TP,[4],5.9 g/dL
same,gamma-GTP,[4],0.6 IU/L
same,TERMINAL_BW,[5],222.3 g
same,APTT,[5],16 s
same,Bas,[5],0%
same,Eos,[5],1%
same,Fbg,[5],204.8 mg/dL
same,Hb,[5],13.6 g/dL
same,Ht,[5],40.9%
same,Lym,[5],76.8%
same,MCH,[5],21.8 pg
same,MCHC,[5],33.1%
same,MCV,[5],65.9 fL
same,Mono,[5],5.6%
same,Neu,[5],16.4%
same,PT,[5],12.1 s
same,Plat,[5],118.1 x10_4/uL
same,RBC,[5],621.6 x10_4/ul
same,Ret,[5],8.4%
same,KIDNEY_L,[5],1 g
same,KIDNEY_R,[5],1 g
same,KIDNEY_TOTAL,[5],2.1 g
same,ALP,[5],661.2 IU/L
same,ALT,[5],37 IU/L
same,AST,[5],61 IU/L
same,BUN,[5],17.4 mg/dL
same,CRE,[5],0.5 mg/dL
same,DBIL,[5],0.006 mg/dL
same,GLC,[5],213 mg/dL
same,IP,[5],9.8 mg/dL
same,K,[5],5 meq/L
same,Na,[5],137.8 meq/L
same,PL,[5],133.6 mg/dL
same,RALB,[5],3.5 g/dL
same,TBIL,[5],0.5 mg/dL
same,TC,[5],79.4 mg/dL
same,TG,[5],53.8 mg/dL
same,TP,[5],5.5 g/dL
same,gamma-GTP,[5],1.4 IU/L
same,TERMINAL_BW,[6],215.6 g
same,APTT,[6],16.5 s
same,Bas,[6],0%
same,Eos,[6],1%
same,Fbg,[6],205.6 mg/dL
same,Hb,[6],13.4 g/dL
same,Ht,[6],40.4%
same,Lym,[6],79.6%
same,MCH,[6],21.1 pg
same,MCHC,[6],33.1%
same,MCV,[6],63.9 fL
same,Mono,[6],5.2%
same,Neu,[6],14%
same,PT,[6],12.6 s
same,RBC,[6],632.8 x10_4/ul
same,Ret,[6],8.2%
same,WBC,[6],110.9 x10_2/uL
same,KIDNEY_L,[6],1 g
same,KIDNEY_R,[6],1 g
same,KIDNEY_TOTAL,[6],2 g
same,LIVER,[6],9.6 g
same,ALP,[6],736.6 IU/L
same,ALT,[6],32.8 IU/L
same,AST,[6],57.6 IU/L
same,BUN,[6],21.2 mg/dL
same,CRE,[6],0.6 mg/dL
same,DBIL,[6],0.02 mg/dL
same,GLC,[6],211.4 mg/dL
same,IP,[6],9.8 mg/dL
same,K,[6],4.7 meq/L
same,LDH,[6],110.4 IU/L
same,Na,[6],139.6 meq/L
same,PL,[6],112.8 mg/dL
same,RALB,[6],3.6 g/dL
same,TBIL,[6],0.5 mg/dL
same,TC,[6],62.6 mg/dL
same,TG,[6],48.4 mg/dL
same,TP,[6],5.4 g/dL
same,gamma-GTP,[6],1.6 IU/L
same,TERMINAL_BW,[7],220.7 g
same,APTT,[7],16.6 s
same,Bas,[7],0%
same,Eos,[7],1%
same,Fbg,[7],201.2 mg/dL
same,Hb,[7],12.7 g/dL
same,Ht,[7],38.9%
same,Lym,[7],77.6%
same,MCH,[7],20.8 pg
same,MCHC,[7],32.7%
same,MCV,[7],63.4 fL
same,Mono,[7],4.8%
same,Neu,[7],16.6%
same,PT,[7],12.4 s
same,Plat,[7],113.6 x10_4/uL
same,RBC,[7],613.4 x10_4/ul
same,Ret,[7],8.7%
same,KIDNEY_L,[7],1 g
same,KIDNEY_R,[7],1 g
same,KIDNEY_TOTAL,[7],2 g
same,LIVER,[7],9.1 g
same,ALP,[7],691.6 IU/L
same,ALT,[7],36 IU/L
same,AST,[7],59.4 IU/L
same,BUN,[7],24.4 mg/dL
same,CRE,[7],0.4 mg/dL
same,DBIL,[7],0.08 mg/dL
same,GLC,[7],192.2 mg/dL
same,IP,[7],11 mg/dL
same,K,[7],5.3 meq/L
same,LDH,[7],76 IU/L
same,Na,[7],140 meq/L
same,PL,[7],118.2 mg/dL
same,RALB,[7],3.4 g/dL
same,TBIL,[7],0.5 mg/dL
same,TC,[7],68.4 mg/dL
same,TG,[7],27.4 mg/dL
same,TP,[7],5.1 g/dL
same,gamma-GTP,[7],1.8 IU/L
same,TERMINAL_BW,[8],237.2 g
same,APTT,[8],16.4 s
same,Bas,[8],0%
same,Eos,[8],1%
same,Hb,[8],12.8 g/dL
same,Ht,[8],38.5%
same,Lym,[8],79%
same,MCH,[8],21.7 pg
same,MCHC,[8],33.2%
same,MCV,[8],65.3 fL
same,Mono,[8],5.2%
same,Neu,[8],14.8%
same,PT,[8],11.3 s
same,Plat,[8],110.3 x10_4/uL
same,RBC,[8],589.4 x10_4/ul
same,Ret,[8],8.4%
same,WBC,[8],95.8 x10_2/uL
same,KIDNEY_L,[8],1.1 g
same,KIDNEY_R,[8],1.1 g
same,KIDNEY_TOTAL,[8],2.1 g
same,LIVER,[8],11.8 g
same,ALP,[8],971.2 IU/L
same,ALT,[8],39.8 IU/L
same,AST,[8],66.4 IU/L
same,BUN,[8],16.8 mg/dL
same,CRE,[8],0.6 mg/dL
same,Ca,[8],11.1 mg/dL
same,DBIL,[8],0.058 mg/dL
same,GLC,[8],200.4 mg/dL
same,IP,[8],8.6 mg/dL
same,K,[8],4.5 meq/L
same,LDH,[8],100.4 IU/L
same,Na,[8],137.8 meq/L
same,PL,[8],142 mg/dL
same,RALB,[8],3.9 g/dL
same,TBIL,[8],0.3 mg/dL
same,TC,[8],81.4 mg/dL
same,TP,[8],5.7 g/dL
same,gamma-GTP,[8],1.2 IU/L
